Laboratory results from patent publication US8153791B2, “Substituted pyrimidinyl oxime kinase inhibitors” (Janssen Pharmaceutica N.V., priority 2005, dated 2012).
Read-outs that look alike come from different tables or passages of the source.

Experiments:
EGFR = molecular target: T1, EGFR (Homo sapiens, UniProt P00533); assay: EGFR Kinase Assay; assay type: biochemical;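 further: recombinant GST-tagged EGFR expressed in Sf9 cells, phosphorylating biotinylated polyGluTyr with γ-33P ATP on Streptavidin Flashplates, 1 h at 30 °C, scintillation counting, inhibition relative to plate maximum and minimum signals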
T1 construct: The intracellular portion of EGFR started at nucleotide 2189 (corresponding to amino acid 667) and ended at the termination codon; made in house; host or cells: Sf9 insect cells (baculovirus)

HER-2 = molecular target: T2, HER-2 (Homo sapiens, UniProt P04626); assay: HER-2 Kinase Assay; assay type: biochemical; conditions: read-out: HER2 IC50;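 further: HER2 kinase reaction read by scintillation counting, inhibition scaled between maximum and minimum signals set on each plate, IC50 from inhibition against log concentration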
T2 construct: purchased Proqinase (Freiburg, Germany)

[1] = system: HeLa cervical adenocarcinoma; assay: In vitro cell proliferation inhibition, HeLa; assay type: cell-based; conditions: Homo sapiens; HeLa cell line; ATP-Lite method or C14 thymidine method; read-out: HeLa IC50
Description: (§1) The ability of a test compound to inhibit unregulated in vitro cell proliferation may be determined by measuring incorporation of ^14C-labelled thymidine into newly synthesized DNA within cell lines derived from carcinomas originating from several tissues. Accordingly, the effect of a test compound on proliferation of cells with a variety of phenotypes may be determined.
(§2) Carcinoma cell lines used include the HeLa cervical adenocarcinoma from the American Type Culture Collection (ATCC Cat. #CCL2), SK-OV-3 ovarian carcinoma (ATCC Cat. #HTB-77), MCF-7 breast carcinoma (ATCC Cat. #HTB-22), BT474 breast carcinoma (ATCC Cat. #HTB-20), SKBR3 breast carcinoma (ATCC Cat. #HTB-30), A431 epidermoid carcinoma (ATCC Cat. #CRL-1555) and NCI-N87 gastric carcinoma (ATCC Cat. #CRL-5822).
(§3) The carcinoma cells are trypsinized and counted. The cells (3000-8000 count) are added to each well of a 96-well CytoStar tissue culture treated scintillating microplate (Amersham #RPNQ0160) in complete medium (100 μL) and the plate is then incubated in complete medium for 24 hrs at 37° C. in an inert atmosphere containing 5% CO2.
(§4) Test compound (1 μL) in 100% DMSO is added to the plate test-wells with DMSO only added to control-wells. The plate is incubated in complete medium for a second 24 hr period at 37° C. in an atmosphere containing 5% CO2.
(§5) An aliquot of a solution of Methyl ^14C-thymidine (56 mC/mmol) (NEN #NEC568 or Amersham #CFA532) and complete medium (20 μL to provide 0.2 μCi/well) is then added to each well and the plate is incubated for a third 24 hr period at 37° C. in an atmosphere containing 5% CO2.
(§6) The plate contents are then discarded, the plate is washed twice with PBS (200 μL) and then PBS (200 μL) is added to each well. The plate is sealed and the degree of methyl ^14C-thymidine incorporation is quantified on a Packard Top Count.
(§7) Cell proliferation of the Hela cell line was measured using the ATP-Lite method as described in the ATP Lite Kit (Perkin-Elmer Kit Number 6106941) or the C^14 method as described above. Cell proliferation of the other cell lines was measured using the C^14 method.
(§8) The term “NT” means that the compound indicated was not tested in a particular cell line. The lack of such testing is not intended to imply a belief that the compound is not otherwise active in a particular cell line or any other cell line not tested.

[2] = system: SK-OV-3 ovarian carcinoma; assay: In vitro cell proliferation inhibition, SK-OV-3; assay type: cell-based; conditions: Homo sapiens; SK-OV-3 cells, 14C-thymidine incorporation
Description: as §1, §2, §3, §4, §5, §6, §7, §8

MCF-7 breast carcinoma = assay: In vitro cell proliferation inhibition, MCF-7; assay type: cell-based; conditions: Homo sapiens, MCF7; MCF-7 cells, 14C-thymidine incorporation
Description: as §1, §2, §3, §4, §5, §6, §7, §8

BT474 breast carcinoma = assay: In vitro cell proliferation inhibition, BT474; assay type: cell-based; conditions: Homo sapiens, BT-474; BT474 cells, 14C-thymidine incorporation; read-out: IC50 BT474
Description: as §1, §2, §3, §4, §5, §6, §7, §8

SKBR3 breast carcinoma = assay: In vitro cell proliferation inhibition, SKBR3; assay type: cell-based; conditions: Homo sapiens, SK-BR-3; SKBR3 cells, 14C-thymidine incorporation; read-out: IC50 SKBR3
Description: as §1, §2, §3, §4, §5, §6, §7, §8

[3] = system: A431 epidermoid carcinoma; assay: In vitro cell proliferation inhibition, A431; assay type: cell-based; conditions: Homo sapiens, A-431; A431 cells, 14C-thymidine incorporation; read-out: IC50 A431
Description: as §1, §2, §3, §4, §5, §6, §7, §8

[4] = system: NCI-N87 gastric carcinoma; assay: In vitro cell proliferation inhibition, NCI-N87; assay type: cell-based; conditions: Homo sapiens, NCI-N87; N87 cells, 14C-thymidine incorporation; read-out: IC50 N87
Description: as §1, §2, §3, §4, §5, §6, §7, §8

[5] = Blood-Brain Barrier Penetration (concentration in plasma and brain); assay type: in vivo, Sprague Dawley rats; conditions: male, Sprague Dawley, rat; for concentration at 60 min: male Sprague Dawley rats; for concentration at 120 min: 120 min (brain)
Procedure: The blood-brain barrier penetration of Compound 78 was examined in male Sprague Dawley rats following i.v. (3 mg/kg) or oral (10 mg/kg) administration.
The i.v. formulation consisted of a 1 mg/mL dose in vehicle (10% solutol in D5W at pH 3) with plasma samples drawn at 0.25 hours, 0.5 hours and 1 hour after administration.
The oral (p.o) formulation consisted of a 1 mg/mL dose in vehicle (0.5% methylcellulose) with plasma samples drawn at 0.5 hours, 1 hour and 2 hours after administration.
The plasma samples (0.5 ml) were collected and centrifuged (2000 rpm, 3 min), then stored at −60° C. until LC-MS/MS analysis. Brain samples were collected immediately after the last blood sample collection. The samples were rinsed with 0.9% NaCl, patted dry, then weighed and placed in Falcon 14 mL polypropylene round-bottom tubes containing 3 mL methanol. The methanolic mixtures were homogenized with an OMNI TH115 homogenizer then centrifuged for 10 minutes at 7,000 rpm. The supernatant was removed and stored frozen in 15 mL polyethylene tubes at −60° C. until LC-MS/MS analysis.

[6] = system: N87 gastric carcinoma cells; assay: N87 Human Tumor Xenograft Model; assay type: in vivo, nu/nu mice; conditions: treatment groups 5-10, 100 mg/kg oral once daily for 30 days
Description: The N87 gastric carcinoma cell line overexpresses HER-2 as a result of gene amplification and forms tumors in nude mice (Kasprzyk P G, Song S U, Di Fiore P P, King C R, Therapy of an animal model of human gastric cancer using a combination of anti-erbB-2 monoclonal antibodies, Cancer Res., 1992, 52, 2771-2776).
Female nu/nu mice (Charles River; 8 to 9 weeks of age) were implanted subcutaneously with from 3×10^6 to 5×10^6 N87 gastric carcinoma cells (obtained from the American Type Culture Collection, ATCC Cat. #CRL-5822) in the flank. Animals were weighed twice weekly during the study and examined frequently.
Tumor size was monitored twice weekly and then daily as the neoplasms reached the target weight range (about 75 mg). Animals were pair-matched when tumors were in the 62 to 126 mg range (group mean tumor size: 70 to 74 mg). Estimated tumor weight was calculated using the formula: […]
A test compound was orally administered daily in the test treatment group after the tumor reached the target weight. For treatment group 1, the test compound was administered once daily for 35 days. For treatment group 2, the test compound was administered once daily for 30 days. For treatment group 3, each dose of test compound was administered once daily for 30 days. For treatment group 4, each dose of test compound was administered once daily for 36 days. For treatment group 5-10, the test compound was administered once daily for 30 days.
Tumor weight was measured daily for subjects (n=8) in the test group and the matched subjects (n=8) in the vehicle-treated group.
The tumor growth inhibition (in percent) was calculated on the last day of the study using the formula: […]
(§9) Statistical significance was evaluated by comparing the vehicle group to the test group using a two tailed Students t test. The term “NC” means that the P value for the treatment group indicated was not calculated. The lack of such calculation is not intended to imply a belief that the activity of the compound is not otherwise statistically significant in this particular cell line or in any other cell line not tested.

[7] = system: A431 epidermoid carcinoma cells; assay: A431 Human Tumor Xenograft Model; assay type: in vivo, nu/nu mice; conditions: treatment groups 5-10, 100 mg/kg oral once daily for 30 days
Description: The A431 epidermoid carcinoma cell line overexpresses EGFR, activating signaling pathways responsible for driving the proliferation, invasion and survival of cancer cells and forming tumors in nude mice (Giard D J, Aaronson S A, Todaro G J, Arnstein P, Kersey J H, Dosik H, Parks W P, In vitro cultivation of human tumors: establishment of cell lines derived from a series of solid tumors, J. Natl. Cancer Inst., 1973, 51, 1417-1423; and, Kawamoto T, Sato J D, Le A, Polikoff J, Sato G H, Mendelsohn J, Growth stimulation of A431 cells by epidermal growth factor: identification of high-affinity receptors for epidermal growth factor by an anti-receptor monoclonal antibody, Proc. Natl. Acad. Sci. USA, 1983, 80, 1337-1341).
Female nu/nu mice (Charles River; 8 to 9 weeks of age) were implanted subcutaneously in the flank with 4×10^6 A431 epidermoid carcinoma cells (obtained from the American Type Culture Collection, ATCC Cat. #CRL-1555). Animals were weighed twice weekly during the study and examined frequently.
Tumor size was monitored twice weekly and then daily as the neoplasms reached the target weight range (about 75 mg). Animals were pair-matched when tumors were in the 62 to 126 mg range (group mean tumor size: 70 to 74 mg). Estimated tumor weight was calculated using the formula of Example 4.
A test compound was orally administered daily in the test treatment group after the tumor reached the target weight. For treatment groups 1 and 2, each dose of test compound was administered once daily for 25 days. For treatment group 3, each dose of test compound was administered twice daily for 25 days. For treatment group 4, the test compound was administered twice daily for 30 days. For treatment group 5-10, the test compound was administered once daily for 30 days.
as §9

T2 sequence (P04626 679-1255): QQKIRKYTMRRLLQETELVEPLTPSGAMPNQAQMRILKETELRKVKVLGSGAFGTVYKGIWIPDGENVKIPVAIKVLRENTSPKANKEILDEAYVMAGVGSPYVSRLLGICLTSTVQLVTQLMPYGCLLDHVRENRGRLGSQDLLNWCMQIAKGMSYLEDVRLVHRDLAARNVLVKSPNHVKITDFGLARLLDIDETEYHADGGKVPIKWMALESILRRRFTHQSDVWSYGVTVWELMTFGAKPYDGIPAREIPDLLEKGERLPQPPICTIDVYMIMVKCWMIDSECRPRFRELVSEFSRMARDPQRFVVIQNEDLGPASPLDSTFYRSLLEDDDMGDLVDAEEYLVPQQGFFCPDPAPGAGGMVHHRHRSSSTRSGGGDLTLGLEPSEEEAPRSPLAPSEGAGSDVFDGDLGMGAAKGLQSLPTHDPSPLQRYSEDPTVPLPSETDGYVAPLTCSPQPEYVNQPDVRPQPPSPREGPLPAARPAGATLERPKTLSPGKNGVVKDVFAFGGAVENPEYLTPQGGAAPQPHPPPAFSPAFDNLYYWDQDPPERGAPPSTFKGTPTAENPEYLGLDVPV
T1 sequence (P00533 669-1210 limits assumed): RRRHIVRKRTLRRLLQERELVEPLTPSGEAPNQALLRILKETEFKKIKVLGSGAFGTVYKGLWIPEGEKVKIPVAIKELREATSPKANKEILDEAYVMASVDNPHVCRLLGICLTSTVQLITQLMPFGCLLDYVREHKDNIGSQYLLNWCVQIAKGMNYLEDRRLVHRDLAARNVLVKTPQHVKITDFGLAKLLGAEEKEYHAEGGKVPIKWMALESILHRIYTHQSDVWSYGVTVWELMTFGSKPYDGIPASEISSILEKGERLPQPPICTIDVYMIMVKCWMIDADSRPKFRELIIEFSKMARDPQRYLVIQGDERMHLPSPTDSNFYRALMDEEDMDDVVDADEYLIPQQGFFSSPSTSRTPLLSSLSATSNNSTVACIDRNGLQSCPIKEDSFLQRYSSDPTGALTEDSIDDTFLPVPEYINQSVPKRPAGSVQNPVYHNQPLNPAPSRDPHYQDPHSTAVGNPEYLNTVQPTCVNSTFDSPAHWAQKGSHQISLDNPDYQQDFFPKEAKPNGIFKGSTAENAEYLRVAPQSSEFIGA

| Structure (SMILES) | IC50 (EGFR) [nM] | IC50 (HER-2) [nM] | IC50 [1] [nM] | IC50 [2] [nM] | IC50 (MCF-7 breast carcinoma) [nM] | IC50 (BT474 breast carcinoma) [nM] | IC50 (SKBR3 breast carcinoma) [nM] | IC50 [3] [nM] | IC50 [4] [nM] | concentration at 60 min ([5]; brain, iv, 3 mg/kg, i.v. 3 mg/kg, 60 min (brain), read-out: Concentration in Brain, Mean ± SEM) [ng/g] | concentration at 120 min ([5]; brain, po, 10 mg/kg, p.o. 10 mg/kg, first of two lines so labelled, read-out: Concentration in Brain, Mean ± SEM) [ng/g] | concentration at 120 min ([5]; brain, po, 10 mg/kg, p.o. 10 mg/kg, second of two lines so labelled, read-out: Concentration in Brain, Mean ± SEM) [ng/g] | Kp at 1 h ([5]; brain/plasma, iv, i.v. 3 mg/kg, 60 min, read-out: Brain/Plasma Ratio) | Kp at 2 h ([5]; brain/plasma, po, p.o. 10 mg/kg, read-out: Brain/Plasma Ratio) | concentration at 60 min ([5]; plasma, iv, 3 mg/kg, i.v. 3 mg/kg, 60 min (plasma), read-out: Concentration in Plasma, Mean ± SEM) [ng/mL] | concentration at 60 min ([5]; plasma, po, 10 mg/kg, p.o. 10 mg/kg, 60 min (plasma), read-out: Concentration in Plasma, Mean ± SEM) [ng/mL] | N87 Tumor Growth Inhibition TGI [6] [%] | A431 Tumor Growth Inhibition TGI [7] [%] |
| --- | --- | --- | --- | --- | --- | --- | --- | --- | --- | --- | --- | --- | --- | --- | --- | --- | --- | --- |
| Nc1ncnc(Nc2ccc(OCc3ccccc3)c(Cl)c2)c1/C=N/OCCN1CCOCC1 [Cpd 78] | 20 | 60 | 19600 | 100000 | 100000 | 60 | 200 | 800 | 200 | 307 ± 55 | 46.1 ± 17.4 | 51.2 ± 13.7 | 2.5 | 1.2 | 124 ± 5.5 | 73.6 ± 16.4 |  |  |
| Nc1ncnc(Nc2ccc(OCc3cccc(F)c3)c(Cl)c2)c1/C=N/OCCN1CCOCC1 [Cpd 93, (5E)-4-amino-6-[3-chloro-4-(3-fluoro-benzyloxy)-phenylamino]-pyrimidine-5-carbaldehyde O-(2-morpholin-4-yl-ethyl)-oxime] | 20 | 8 | 22100 | 100000 | 100000 | 40 | 20 | 600 | 70 |  |  |  |  |  |  |  | 59.9 | 64.0 |
| Nc1ncnc(Nc2ccc(OCc3cccc(F)c3)c(Cl)c2)c1/C=N/OCCN1CCCCC1 [Cpd 94, (5E)-4-amino-6-[3-chloro-4-(3-fluoro-benzyloxy)-phenylamino]-pyrimidine-5-carbaldehyde O-(2-piperidin-1-yl-ethyl)-oxime] | 20 | 40 | 6100 | 1000 | 1000 | 500 | 500 |  | 400 |  |  |  |  |  |  |  | 47.1 | 66 |
| Nc1ncnc(Nc2ccc3c(ccn3Cc3cccc(F)c3)c2)c1/C=N/OCCN1CCOCC1 [Cpd 101, (5E)-4-amino-6-[1-(3-fluoro-benzyl)-1H-indol-5-ylamino]-pyrimidine-5-carbaldehyde O-(2-morpholin-4-yl-ethyl)-oxime] |  | 60 | 25100 |  |  | 50 | 60 | 9 | 30 |  |  |  |  |  |  |  | 66 | 51 |
| Nc1ncnc(Nc2ccc(OCc3ccccc3)c(Cl)c2)c1/C=N/OCCCN1CCOCC1 [Cpd 112, (5E)-4-amino-6-(4-benzyloxy-3-chloro-phenylamino)-pyrimidine-5-carbaldehyde O-(3-morpholin-4-yl-propyl)-oxime] | 20 |  |  |  |  |  |  |  |  |  |  |  |  |  |  |  | 48.6 | 33 |
| Nc1ncnc(Nc2ccc(OCc3ccccc3)c(Cl)c2)c1/C=N/OCc1ccccn1 [Cpd 114, (5E)-4-amino-6-(4-benzyloxy-3-chloro-phenylamino)-pyrimidine-5-carbaldehyde O-pyridin-2-ylmethyl-oxime] |  |  |  |  |  |  |  |  |  |  |  |  |  |  |  |  | 47 | −3 |
| COCCNCCCO/N=C/c1c(N)ncnc1Nc1ccc(OCc2ccccc2)c(Cl)c1 [Cpd 115, (5E)-4-amino-6-(4-benzyloxy-3-chloro-phenylamino)-pyrimidine-5-carbaldehyde O-[3-(2-methoxy-ethylamino)-propyl]-oxime] |  |  |  |  |  |  |  |  |  |  |  |  |  |  |  |  | 50.2 | 4 |
